{"source": "patent US7884136B2", "about": "“Modified-release formulations of a bupropion salt” (Biovail Laboratories International S.R.L., priority 2005, dated 2011)", "type_in_all_cases": "physicochemical", "key": {"[1]": {"test": "Accelerated stability study of bupropion HBr, closed bottles, 40° C./75% RH, 3 and 6 months, HPLC", "details": "40° C./75% RH", "description": "The samples were prepared in closed bottles and placed in the stability chamber. HPLC analysis was conducted on the samples prior to placing them in the stability chamber (time 0), and after 3 months and 6 months. The amounts of the main degradation products present at time 0 were compared with those amounts present after 3 months and 6 months. […] For each sample tested, at each time period, two different HPLC assays were run. The first assay labelled chromatographic purity A, measured the percentage of three impurities 3′chloropropiophenone, 3′-Chloro-2-bromopropiophenone and 3′-Chlorobenzoic acid. The second assay, labelled chromatographic purity B, measured the percentage of 2-N-(tert-Butyl)-aminopropiophenone, a single unknown impurity and the total unknown impurities."}, "[2]": {"test": "TGA experiment at 100° C., loss of API salt over time", "details": "TGA at 100° C.", "description": "The average weight of the excipients and the weight of the active pharmaceutical ingredient (API) present in the samples are presented in Table 72. […] FIG. 53 is a graph showing the loss of each salt over time in a TGA experiment at 100° C."}, "[3]": {"test": "Shelf life stability program of bupropion HBr, 25° C./60% RH, 3 and 6 months, HPLC", "details": "25° C./60% RH, 3 and 6 months", "description": "The stability of bupropion HBr was studied over a longer term under conditions meant to approximate standard storage or shelf conditions. Samples were prepared in closed containers and subjected to long-term storage at 25° C.+2° C. and 60%+5% RH in a stability chamber. The samples were analyzed by HPLC prior to being placed in the stability chamber (time 0) and after 3 months and 6 months. The amounts of the main degradation products present at time 0 were compared with the amounts present at 3 months and 6 months. As shown in Table 77-79 three different batches of bupropion HBr were tested. As in Example 10 each sample was tested under two HPLC assay conditions to identify 6 impurities or groups of impurities as described in Example 10."}}}
{"smiles": "Br.CC(NC(C)(C)C)C(=O)c1cccc(Cl)c1", "note": "(stereo not drawn) [Bupropion HBr, bupropion hydrobromide]", "values": [{"measurement": "Total percentage of impurities, change", "setting": "[1]; 3-month and 6-month", "value": "did not change"}, {"measurement": "Impurity 3′-chloropropiophenone, trend", "setting": "[1]; 3 and 6 months, three batches", "value": "slight increase"}, {"measurement": "Stability under the accelerated stability test conditions", "setting": "[1]; 6 months", "value": "highly stable"}, {"measurement": "Disproportionation of the salt at elevated temperature", "setting": "[2]", "value": "did not occur"}, {"measurement": "Other impurities, trend", "setting": "[3]", "value": "did not show an increasing trend over time"}, {"measurement": "Impurity 3′-chloropropiophenone, trend", "setting": "[3]; three batches", "value": "increased slightly over time"}]}
